pEC50: −log10 of the molar value. One block for each compound: values may come before it.
Key:
[1] = test system: panel of 11 kinases (N- and C-terminal NanoLuc fusions); test: NanoLuc fusion protein array screen, cell-free TNT expression, BRET response ratio (Example 17); type: binding; details: cell-free TNT reactions diluted 1:100, tracer with or without excess free drug, 2 h room temperature, FIG. 19
Method: Each TNT® reaction was diluted 1:100 in PBS and plated in replicates into wells of 96-well plates. […] For each TNT® reaction, 4 replicates with 2 uM BIRB TOM/4 replicates with 2 uM BIRB-TOM+4 uM BIRB796 (total of 2×96-well plates) and 4 replicas with 1 uM Dasatinib-TOM/4 replicates with 1 uM Dasatinib-TOM+5 uM Dasatinib (total of 2×96-well plates) were performed. The reactions were incubated with constant mixing for 2 h at room temperature. […] To determine response ratios, the BRET values with tracer alone were divided by the BRET values with tracer+unmodified.

NanoLuc-p38alpha = target: T1, NanoLuc-p38alpha (Homo sapiens, UniProt Q16539); test: BRET tracer binding to NanoLuc-p38alpha in HEK293 cells (Example 10); details: serially-diluted tracer, 37° C. two hours, FIG. 11
T1 construct: expressed in transfected cells; host or cells: HEK293
Method: (§1) Cells were incubated at 37° C. for two hours.

[2] = test system: NanoLuc fusions to various members of the MAPK pathway; test: Tracer selectivity across p38/MAPK pathway NanoLuc fusions, BRET response ratio (Example 12); type: binding; details: HEK293 cells, 2 uM tracer with or without 4 uM BIRB796, FIG. 13
Method: (§2) Cells were incubated at 37° C. for two hours. […] To determine response ratios, the BRET values with tracer alone were divided by the BRET values with tracer+unmodified BIRB796.

PKCalpha-NanoLuc [3] = target: T2, PKCalpha-NanoLuc (Homo sapiens, UniProt P17252); test: Tracer BRET with PKCalpha-NanoLuc in MAPK panel (Example 12); type: binding; details: HEK293 cells, 2 uM tracer with or without 4 uM BIRB796, FIG. 13
T2 construct: expressed in transfected cells; host or cells: HEK293
Method: as §2

PKCalpha-NanoLuc [4] = target: T2, PKCalpha-NanoLuc; test: Tracer affinity BRET, PKCalpha-NanoLuc (Example 13); type: binding; details: HEK293 cells, serially-diluted tracer with or without 4 uM BIRB796, FIGS. 14 and 15
Method: as §1

NanoLuc-HDAC6 [5] = target: T3, NanoLuc-HDAC6 (Homo sapiens, UniProt Q9UBN7); test: Tracer affinity BRET, NanoLuc-HDAC6 (Example 13); type: binding; details: HEK293 cells, serially-diluted tracer with or without 4 uM BIRB796, FIGS. 14 and 15
T3 construct: expressed in transfected cells; host or cells: HEK293
Method: as §1

NanoLuc-HDAC6 [6] = target: T3, NanoLuc-HDAC6; test: Competitive displacement of SAHA-TOM tracer from NanoLuc-HDAC6, BRET (Example 15); type: binding; details: HEK293 cells, serially-diluted inhibitor with 1 uM SAHA-TOM (PBI-4968), two hours, FIG. 17
NanoLuc-HDAC6 [7] = target: T3, NanoLuc-HDAC6; test: Intracellular BRET tracer binding to NanoLuc-HDAC6 (Example 1); details: HEK293 cells, compared to SAHA-TMR (PBI-4967), FIG. 2
Method: HEK293 cells were transfected using FuGene HD (Promega Corp.) with plasmid DNA encoding a NanoLuc-HDAC6 fusion protein. NanoLuc-HDAC6 DNA was diluted 1:1000 with a promoterless carrier DNA (pGEM3Z) to yield a final concentration of 50 ng/well total DNA in 96-well plate format (at a seeding density of 20,000 cells/well). Twenty-four hours post-transfection, cells were then incubated with serially-diluted tracer in the presence or absence of a molar excess of unlabeled SAHA (as a specificity control). Following equilibration with the drug tracers, furimazine (a coelenterazine derivative substrate for NanoLuc; Promega Corp.) was added at a concentration of 20 uM, and BRET was quantified on a Varioskan luminometer. The specific BRET signal was calculated by subtracting the non-specific signal (in the presence of unlabeled SAHA) from the signal generated from the SAHA tracer alone.

HDAC1 = target: T4, HDAC1 (Homo sapiens, UniProt Q13547); test: SAHA tracer BRET with HDAC1 NANOLUC fusion in HeLa cells (Example 23); type: binding; details: FIG. 29
T4 construct: expressed in transfected cells; host or cells: HeLa
Method: (§3) HeLa cells were transfected with plasmid DNA encoding NANOLUC fusions with the entire family of non-sirtuin histone deacetylases (HDACs 1-11). […] Cells were incubated at 37° C. for two hours. […] BRET was then measured on a BMG Clariostar luminometer equipped with 450 nm bandpass and 610 nm longpass filters. […] To determine specific, background corrected BRET values, the nonspecific BRET values at each concentration of tracer were subtracted from BRET values with tracer alone.

HDAC2 = target: T5, HDAC2 (Homo sapiens, UniProt Q92769); test: SAHA tracer BRET with HDAC2 NANOLUC fusion in HeLa cells (Example 23); type: binding; details: FIG. 29
T5 construct: expressed in transfected cells; host or cells: HeLa
Method: as §3

HDAC3 = target: T6, HDAC3 (Homo sapiens, UniProt O15379); test: SAHA tracer BRET with HDAC3 NANOLUC fusion in HeLa cells (Example 23); type: binding; details: FIG. 29
T6 construct: expressed in transfected cells; host or cells: HeLa
Method: as §3

HDAC8 = target: T7, HDAC8 (Homo sapiens, UniProt Q9BY41); test: SAHA tracer BRET with HDAC8 NANOLUC fusion in HeLa cells (Example 23); type: binding; details: FIG. 29
T7 construct: expressed in transfected cells; host or cells: HeLa
T7 sequence (Q9BY41 1-377): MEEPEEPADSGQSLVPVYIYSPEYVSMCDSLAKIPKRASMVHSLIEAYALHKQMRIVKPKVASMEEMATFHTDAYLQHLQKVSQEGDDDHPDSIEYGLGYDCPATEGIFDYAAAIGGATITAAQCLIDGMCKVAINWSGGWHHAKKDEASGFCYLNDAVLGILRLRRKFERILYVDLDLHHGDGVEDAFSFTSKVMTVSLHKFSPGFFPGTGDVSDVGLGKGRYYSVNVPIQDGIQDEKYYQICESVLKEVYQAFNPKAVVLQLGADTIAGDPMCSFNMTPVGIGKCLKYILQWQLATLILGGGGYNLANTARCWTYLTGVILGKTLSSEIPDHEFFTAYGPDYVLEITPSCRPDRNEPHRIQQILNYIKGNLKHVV
Method: as §3

HDAC6 = target: T8, HDAC6 (Homo sapiens, UniProt Q9UBN7); test: SAHA tracer BRET with HDAC6 NANOLUC fusion in HeLa cells (Example 23); type: binding; details: FIG. 30
T8 construct: expressed in transfected cells; host or cells: HeLa
Method: as §3

HDAC10 = target: T9, HDAC10 (Homo sapiens, UniProt Q969S8); test: SAHA tracer BRET with HDAC10 NANOLUC fusion in HeLa cells (Example 23); type: binding; details: FIG. 30
T9 construct: expressed in transfected cells; host or cells: HeLa
T9 sequence (Q969S8 1-669): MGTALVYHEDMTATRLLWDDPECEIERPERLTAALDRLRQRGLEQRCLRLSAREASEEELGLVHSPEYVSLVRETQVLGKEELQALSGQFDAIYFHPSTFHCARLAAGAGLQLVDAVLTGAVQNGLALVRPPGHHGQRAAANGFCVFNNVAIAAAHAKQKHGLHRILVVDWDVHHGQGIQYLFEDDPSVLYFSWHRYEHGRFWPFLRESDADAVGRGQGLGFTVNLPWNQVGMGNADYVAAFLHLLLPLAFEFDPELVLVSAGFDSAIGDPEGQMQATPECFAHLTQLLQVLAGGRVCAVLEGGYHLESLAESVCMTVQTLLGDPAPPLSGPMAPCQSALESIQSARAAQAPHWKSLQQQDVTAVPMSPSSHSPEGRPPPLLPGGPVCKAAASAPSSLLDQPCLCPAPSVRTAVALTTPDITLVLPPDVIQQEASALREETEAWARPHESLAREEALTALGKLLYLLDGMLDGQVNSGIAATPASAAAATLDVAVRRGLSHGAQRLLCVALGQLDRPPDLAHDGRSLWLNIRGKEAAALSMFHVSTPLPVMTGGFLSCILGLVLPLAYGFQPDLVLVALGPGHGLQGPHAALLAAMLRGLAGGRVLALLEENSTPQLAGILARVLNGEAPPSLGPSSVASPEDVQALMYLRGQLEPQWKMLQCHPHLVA
Method: as §3

Class IIa HDACs = test: SAHA tracer BRET with Class IIa HDAC NANOLUC fusions in HeLa cells (Example 23); type: binding; details: FIG. 31
Method: as §3

[8] = target: 11S-BRD4/114-Histone H3.3 complex (Homo sapiens, UniProt O60885); test: Competitive displacement of iBET-NCT tracer from 11S-BRD4/Histone H3.3-114 complex, BRET (Example 22); type: binding; details: HEK293 cells, 2 uM iBET-NCT/PBI-4966 tracer, FIG. 28

T3 sequence (Q9UBN7 with tags, fused parts or gaps): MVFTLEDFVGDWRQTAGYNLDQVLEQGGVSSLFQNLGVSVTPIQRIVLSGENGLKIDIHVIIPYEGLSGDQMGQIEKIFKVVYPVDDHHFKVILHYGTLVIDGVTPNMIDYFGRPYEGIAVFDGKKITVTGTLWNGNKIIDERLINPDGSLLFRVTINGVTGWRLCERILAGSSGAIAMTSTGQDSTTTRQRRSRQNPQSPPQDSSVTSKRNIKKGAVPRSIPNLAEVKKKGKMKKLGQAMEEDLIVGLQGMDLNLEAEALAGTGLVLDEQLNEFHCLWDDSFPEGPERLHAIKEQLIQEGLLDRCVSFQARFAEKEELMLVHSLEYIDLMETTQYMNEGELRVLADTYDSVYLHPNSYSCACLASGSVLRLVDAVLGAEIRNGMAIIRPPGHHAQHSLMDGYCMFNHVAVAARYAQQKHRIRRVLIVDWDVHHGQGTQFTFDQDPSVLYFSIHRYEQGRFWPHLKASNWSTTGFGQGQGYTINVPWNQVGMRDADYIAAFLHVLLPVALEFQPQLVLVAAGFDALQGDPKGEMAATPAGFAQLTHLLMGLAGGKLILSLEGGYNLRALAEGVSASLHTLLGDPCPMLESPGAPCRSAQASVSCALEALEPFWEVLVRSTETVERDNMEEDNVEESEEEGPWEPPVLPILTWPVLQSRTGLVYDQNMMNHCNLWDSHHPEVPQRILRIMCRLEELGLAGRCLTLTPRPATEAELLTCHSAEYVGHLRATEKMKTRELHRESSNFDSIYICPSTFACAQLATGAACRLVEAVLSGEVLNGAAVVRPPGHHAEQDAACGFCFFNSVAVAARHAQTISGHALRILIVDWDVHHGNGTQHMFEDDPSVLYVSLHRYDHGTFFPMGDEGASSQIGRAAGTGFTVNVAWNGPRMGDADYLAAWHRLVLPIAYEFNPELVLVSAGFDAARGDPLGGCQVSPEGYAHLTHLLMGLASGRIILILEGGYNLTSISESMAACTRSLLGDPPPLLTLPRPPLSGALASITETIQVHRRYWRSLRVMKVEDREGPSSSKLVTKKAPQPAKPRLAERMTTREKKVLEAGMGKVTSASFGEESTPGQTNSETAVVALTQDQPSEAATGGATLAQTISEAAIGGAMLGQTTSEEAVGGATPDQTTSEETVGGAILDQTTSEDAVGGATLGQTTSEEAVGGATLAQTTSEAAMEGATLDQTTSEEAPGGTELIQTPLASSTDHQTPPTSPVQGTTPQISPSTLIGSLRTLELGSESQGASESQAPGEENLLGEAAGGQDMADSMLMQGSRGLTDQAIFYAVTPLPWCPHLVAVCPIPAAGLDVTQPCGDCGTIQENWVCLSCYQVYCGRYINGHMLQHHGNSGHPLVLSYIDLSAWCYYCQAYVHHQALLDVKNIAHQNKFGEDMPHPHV
T8 sequence (Q9UBN7 with tags, fused parts or gaps): as the sequence (Q9UBN7 with tags, fused parts or gaps) above
T4 sequence (Q13547 whole entry, species assumed, the tested form may be a part): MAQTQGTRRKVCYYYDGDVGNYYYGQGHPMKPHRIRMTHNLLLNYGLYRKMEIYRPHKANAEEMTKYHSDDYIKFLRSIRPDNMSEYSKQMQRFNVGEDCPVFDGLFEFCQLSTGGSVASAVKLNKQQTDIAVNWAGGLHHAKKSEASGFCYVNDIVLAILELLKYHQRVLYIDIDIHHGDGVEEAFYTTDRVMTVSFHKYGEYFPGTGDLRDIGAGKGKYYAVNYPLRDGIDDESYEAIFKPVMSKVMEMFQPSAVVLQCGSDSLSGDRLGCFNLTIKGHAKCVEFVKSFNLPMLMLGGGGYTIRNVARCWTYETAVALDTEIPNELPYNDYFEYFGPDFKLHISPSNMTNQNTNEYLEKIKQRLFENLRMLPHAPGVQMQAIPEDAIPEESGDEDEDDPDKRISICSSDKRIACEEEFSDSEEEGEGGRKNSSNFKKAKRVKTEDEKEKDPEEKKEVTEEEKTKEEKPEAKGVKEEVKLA
T6 sequence (O15379 whole entry, the tested form may be a part): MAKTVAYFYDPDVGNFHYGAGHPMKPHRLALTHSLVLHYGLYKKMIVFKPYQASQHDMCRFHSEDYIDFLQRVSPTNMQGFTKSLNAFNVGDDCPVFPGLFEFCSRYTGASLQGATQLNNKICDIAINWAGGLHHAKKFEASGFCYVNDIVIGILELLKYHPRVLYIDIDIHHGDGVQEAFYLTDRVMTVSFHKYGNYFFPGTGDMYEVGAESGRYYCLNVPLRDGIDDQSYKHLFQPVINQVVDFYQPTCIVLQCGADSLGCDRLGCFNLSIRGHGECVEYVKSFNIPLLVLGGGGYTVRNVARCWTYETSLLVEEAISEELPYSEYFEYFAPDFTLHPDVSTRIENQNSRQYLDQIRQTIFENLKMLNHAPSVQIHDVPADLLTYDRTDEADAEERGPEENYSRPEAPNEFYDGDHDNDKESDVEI
T1 sequence (Q16539 whole entry): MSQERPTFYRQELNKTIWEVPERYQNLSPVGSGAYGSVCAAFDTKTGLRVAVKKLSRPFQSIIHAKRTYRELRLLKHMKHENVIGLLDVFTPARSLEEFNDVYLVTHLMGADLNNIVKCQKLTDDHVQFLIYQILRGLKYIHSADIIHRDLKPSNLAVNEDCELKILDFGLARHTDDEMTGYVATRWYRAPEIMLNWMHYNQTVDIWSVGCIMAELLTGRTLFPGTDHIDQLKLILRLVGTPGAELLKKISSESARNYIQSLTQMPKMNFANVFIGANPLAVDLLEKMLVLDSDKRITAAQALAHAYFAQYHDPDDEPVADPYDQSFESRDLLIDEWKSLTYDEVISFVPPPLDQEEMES
T5 sequence (Q92769 whole entry, the tested form may be a part): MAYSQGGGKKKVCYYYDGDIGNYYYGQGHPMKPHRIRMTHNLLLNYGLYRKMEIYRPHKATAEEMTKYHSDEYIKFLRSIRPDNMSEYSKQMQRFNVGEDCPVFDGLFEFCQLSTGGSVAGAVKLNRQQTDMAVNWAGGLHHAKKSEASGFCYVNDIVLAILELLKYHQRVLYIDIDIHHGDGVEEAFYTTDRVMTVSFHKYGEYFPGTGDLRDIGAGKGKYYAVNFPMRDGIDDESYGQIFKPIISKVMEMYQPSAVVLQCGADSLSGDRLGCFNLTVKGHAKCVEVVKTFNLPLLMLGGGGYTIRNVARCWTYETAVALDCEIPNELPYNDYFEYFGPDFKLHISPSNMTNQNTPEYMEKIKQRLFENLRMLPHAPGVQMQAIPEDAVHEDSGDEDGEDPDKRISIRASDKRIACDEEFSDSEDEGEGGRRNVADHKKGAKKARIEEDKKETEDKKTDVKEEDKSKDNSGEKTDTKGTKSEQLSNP

SMILES: Cc1nc(Nc2ncc(C(=O)Nc3c(C)cccc3Cl)s2)cc(N2CCN(CCOC(=O)NCCCCCNC(=O)c3ccc(C(=O)O)c(C4=c5cc6c7c(c5Oc5c4cc4c8c5CCCN8CCCC4)CCC[N+]=7CCCC6)c3)CC2)n1 [PBI-5170]
selectivity of tracer (hits in NanoLuc fusion array) [1]: ABL1, Src, LCK, MEK5, MAPK11 and MAPK14

SMILES: CC(C)(C)c1cc(NC(=O)Nc2ccccc2)n(-c2cccc(CNC(=O)CN)c2)n1 [PBI-4838]
pEC50 (NanoLuc-p38alpha): 7.42 | selectivity of tracer (targets giving specific BRET) [2]: Jnk2, p38beta and p38alpha | specific BRET signal (PKCalpha-NanoLuc [3]): relatively little specific BRET signal | specific BRET signal (PKCalpha-NanoLuc [4]): relatively little specific BRET signal | specific BRET signal (NanoLuc-HDAC6 [5]): relatively little specific BRET signal | selectivity of tracer (hits in NanoLuc fusion array) [1]: JNk2, JNk3, MAPK14, MAPK11 and MAPK13

SMILES: O=C(CCCCCCC(=O)Nc1ccccc1)NO [SAHA, suberoylanilide hydroxamic acid]
binding efficiency to HDAC6 (NanoLuc-HDAC6 [6]): high binding efficiency

EC50 value for binding within living cells (NanoLuc-HDAC6 [7]): left-shifted EC50 value | specific BRET signal (NanoLuc-HDAC6 [7]): superior, specific BRET signal | BRET with tracer (HDAC1): specific BRET signals | BRET with tracer (HDAC2): specific BRET signals | BRET with tracer (HDAC3): specific BRET signals | BRET with tracer (HDAC8): specific BRET signals | BRET with tracer (HDAC6): specific BRET | BRET with tracer (HDAC10): specific BRET
SMILES: O=C(CCCCCCC(=O)Nc1ccc(CNC(=O)c2ccc(C(=O)O)c(C3=c4cc5c6c(c4Oc4c3cc3c7c4CCCN7CCCC3)CCC[N+]=6CCCC5)c2)cc1)NO [PBI-4968]
BRET with tracer (Class IIa HDACs): do not generate significant BRET

effect on BRET signal (competitive binding) [8]: diminished in a dose-dependent manner
SMILES: COc1cc2c(cc1-c1c(C)noc1C)ncc1[nH]c(=O)n([C@H](C)c3ccccn3)c12 [IBET 151]
